# Measurements reported in patent publication US10401298B2, “Label-free detection of small and large molecule interactions, and activities in biological systems” (Arizona Board of Regents on behalf of Arizona State …, priority 2014, dated 2019).
# Where two headings read alike, the source gives them in different places.
# Columns and labels:
# [1] = molecular target: human α4β2 nicotinic acetylcholine receptors (nAChRs) (Homo sapiens, UniProt P17787+P43681); details: FIG. 5F, 100 nM Acetylcholine
# Text: The edge of a cell 5 can be manually defined from the optical image of the cell, but an imaging processing algorithm can automatically detect the cell edge, providing high throughput. After determining the cell edge, a region of interest (ROI) is selected at a location of the cell edge. The ROI can be a rectangular shape30 with the cell edge 32 passing through the center portion of the rectangle, dividing the rectangle into two equal halves, one half 34 is inside of the cell, and the second half 36 falls outside of the cell. We denote the intensities of the two halves of the differential image as A and B, and (A−B)/(A+B) is calculated and used to determine the movement of the cell edge at each location. […]
# The relation between the cell edge movement and the measured differential image intensity change from one of the above differential optical detection method can be determined as below. […] The edge of one cell is manually chosen and the centroid (O) of the cell is determined (FIGS. 1B and 1C). […] The cell edge movement was calculated at every 10 starting from 0 (FIG. 1E). The ROI at a certain point of the cell edge (point A) is then shifted by different numbers of pixels outwards (perpendicular to the tangential line at point A), and the corresponding changes in the differential image intensity is determined from the image. […]
# wild type SH-EP1 cells = test: Control: response of wild type SH-EP1 cells (no nAChRs expressed) to acetylcholine; assay type: binding, human; details: wild type SH-EP1 cells without nAChRs, 500 nM acetylcholine
# Text: H are shown. The scale bar is 20 μm.
# Curve 370 represents the measurements for cell G and lighter curve 370 represents the measurements for cell H.
# human α4β2 nicotinic acetylcholine receptors (nAChRs), sequence (P43681 29-627 limits assumed): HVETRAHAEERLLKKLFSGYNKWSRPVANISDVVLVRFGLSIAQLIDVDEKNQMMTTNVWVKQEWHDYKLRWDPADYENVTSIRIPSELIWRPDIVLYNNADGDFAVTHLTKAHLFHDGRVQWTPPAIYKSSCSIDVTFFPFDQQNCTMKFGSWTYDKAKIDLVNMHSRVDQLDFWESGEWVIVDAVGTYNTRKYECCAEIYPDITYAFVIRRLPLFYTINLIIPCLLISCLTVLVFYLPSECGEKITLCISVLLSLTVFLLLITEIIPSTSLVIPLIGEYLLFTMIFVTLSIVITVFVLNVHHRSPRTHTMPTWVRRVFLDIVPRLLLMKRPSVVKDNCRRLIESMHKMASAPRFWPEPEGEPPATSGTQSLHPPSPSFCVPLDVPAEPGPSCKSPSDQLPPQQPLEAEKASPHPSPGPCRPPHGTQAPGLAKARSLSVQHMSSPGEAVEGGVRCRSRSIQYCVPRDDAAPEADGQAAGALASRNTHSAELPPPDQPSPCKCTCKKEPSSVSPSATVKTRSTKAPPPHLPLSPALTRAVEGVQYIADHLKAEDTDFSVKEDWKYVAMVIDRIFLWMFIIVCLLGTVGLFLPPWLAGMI
# human α4β2 nicotinic acetylcholine receptors (nAChRs), sequence (P17787 26-502): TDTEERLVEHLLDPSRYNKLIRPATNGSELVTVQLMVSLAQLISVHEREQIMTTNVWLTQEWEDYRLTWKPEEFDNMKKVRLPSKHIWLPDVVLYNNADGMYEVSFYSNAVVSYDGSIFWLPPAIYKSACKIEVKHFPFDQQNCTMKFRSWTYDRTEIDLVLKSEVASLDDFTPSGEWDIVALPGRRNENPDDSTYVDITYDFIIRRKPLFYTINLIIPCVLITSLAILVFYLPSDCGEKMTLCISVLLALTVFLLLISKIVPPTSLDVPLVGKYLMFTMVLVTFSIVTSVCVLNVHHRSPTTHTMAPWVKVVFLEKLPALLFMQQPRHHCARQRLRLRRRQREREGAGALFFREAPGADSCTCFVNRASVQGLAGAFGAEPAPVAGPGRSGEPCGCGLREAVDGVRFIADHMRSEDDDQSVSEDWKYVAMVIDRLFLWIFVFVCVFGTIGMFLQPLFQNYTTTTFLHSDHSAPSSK
compound,measurement,setting,value
"CC(=O)OCC[N+](C)(C)C.[Cl-] [acetylcholine, acetylcholine chloride]",amount of cell membrane deformation after acetylcholine binding,"[1]; lower end of range, at region 592",about −40 nm
same,amount of cell membrane deformation after acetylcholine binding,"[1]; upper end of range, at arrow 590",about 80 nm
same,deformation in the cell membrane,wild type SH-EP1 cells,no deformation
